Results published in patent US9585871B2, “Method for treating and curing leishmaniosis using fexinidazole” (Merial Limited, priority 2013, dated 2017).
Like-named read-outs stand apart in the source and are kept apart here.

Experiments:
[1] = Multiple dosing study in dogs: systemic exposure (plasma) to fexinidazole and its metabolites; assay type: in vivo, dog; conditions: for concentration at 0 h / concentration at 0.5 h / concentration at 1 h / concentration at 2 h / concentration at 4 h / concentration at 8 h / concentration at 24 h / Cmax / Tmax / AUC(0-t): dog, plasma; for concentration at 0 h / concentration at 0.5 h / concentration at 1 h / concentration at 2 h / concentration at 4 h / concentration at 8 h / concentration at 24 h: oral, read-out: Average plasma concentrations of fexinidazole; for concentration at 2 h: Day 1, 2 hours; for concentration at 4 h: Day 1, 4 hours; for concentration at 8 h: Day 1, 8 hours; for concentration at 24 h: Day 1, 24 hours; for Cmax / Tmax / AUC(0-t): po; for AUC(0-t): read-out: AUC0-t (last)
Experimental: In an embodiment, the fexinidazole may be administered to the canine as an aqueous oral suspension, comprising 5% TWEEN 80 and 0.5% Methyl cellulose 400 cP (METHOCEL). Provided in this format, fexinidazole suspensions of 5, 20, and 80 mg fexinidazole/mL may be prepared such that 10 mL of each concentration contains 50, 200, and 800 mg fexinidazole, respectively.
Moreover, inventors expect that a wide variety of dosing regimens are now available to the skilled person to achieve the necessary and sufficient fexinidazole plasma levels. For example, and as further outlined in the Examples below, any dosing regimen that produces substantially similar fexinidazole plasma levels, as compared to those levels produced by giving the dogs about 60 mg/kg/day for about twenty-eight days, is expected to substantially or completely eliminate the Leishmania parasites. Table 1 presents the systemic fexinidazole exposure following dosing of dogs with 50, 200, and 800 mg/kg/day.

[2] = Reproductive toxicity study, rabbits; assay type: in vivo; conditions: oral 40 mg/kg for 13 days
From the text: Toxicology summary. In mice and rats, the maximum fexinidazole (FEX) dose after oral administration is 10 g/kg of body weight. […] Finally, as regards PK, labeled FEX and its metabolites were excreted within 3 days in the feces (52-58%) and urine (36-40%).

[3] = 50 mg/kg/day, 50 mg/kg/day oral
[4] = 200 mg/kg/day, 200 mg/kg/day oral
[5] = female, 50 mg/kg/day, Female Dog, 50 mg/kg/day oral, D1, mean ± SD, n = 3
[6] = female, 50 mg/kg/day, Female Dog, 50 mg/kg/day oral, D14, mean ± SD, n = 3
[7] = female, 50 mg/kg/day, Female Dog, 50 mg/kg/day oral, D28, mean ± SD, n = 3
[8] = female, 200 mg/kg/day, Female Dog, 200 mg/kg/day oral, D1, mean ± SD, n = 3
[9] = female, 200 mg/kg/day, Female Dog, 200 mg/kg/day oral, D14, mean ± SD, n = 3
[10] = female, 200 mg/kg/day, Female Dog, 200 mg/kg/day oral, D28, mean ± SD, n = 3
[11] = female, 800 mg/kg/day, Female Dog, 800 mg/kg/day oral, D1, mean ± SD, n = 5
[12] = female, 800 mg/kg/day, Female Dog, 800 mg/kg/day oral, D14, mean ± SD, n = 5
[13] = female, 800 mg/kg/day, Female Dog, 800 mg/kg/day oral, D28, mean ± SD, n = 5
[14] = male, 50 mg/kg/day, Male Dog, 50 mg/kg/day oral, D1, mean ± SD, n = 3
[15] = male, 50 mg/kg/day, Male Dog, 50 mg/kg/day oral, D14, mean ± SD, n = 3
[16] = male, 50 mg/kg/day, Male Dog, 50 mg/kg/day oral, D28, mean ± SD, n = 3
[17] = male, 200 mg/kg/day, Male Dog, 200 mg/kg/day oral, D1, mean ± SD, n = 3
[18] = male, 200 mg/kg/day, Male Dog, 200 mg/kg/day oral, D14, mean ± SD, n = 3
[19] = male, 200 mg/kg/day, Male Dog, 200 mg/kg/day oral, D28, mean ± SD, n = 3
[20] = male, 800 mg/kg/day, Male Dog, 800 mg/kg/day oral, D1, mean ± SD, n = 5
[21] = male, 800 mg/kg/day, Male Dog, 800 mg/kg/day oral, D14, mean ± SD, n = 5
[22] = male, 800 mg/kg/day, Male Dog, 800 mg/kg/day oral, D28, mean ± SD, n = 5

For `CSc1ccc(OCc2ncc([N+](=O)[O-])n2C)cc1` [Fexinidazole, fexinidazole], the “Average plasma concentrations of fexinidazole” value (from here on “Average plasma concentrations”) ([1]; 50 mg/kg/day oral, Day 14, 2 hours) was 26.8 ng/mL, the “Average plasma concentrations” value ([1]; 50 mg/kg/day oral, Day 14, 4 hours) was roughly 9 ng/mL and the “Average plasma concentrations” value ([1]; 50 mg/kg/day oral, Day 14, 8 hours) was less than 5 ng/mL. The “Average plasma concentrations” value ([1]; 50 mg/kg/day oral, Day 14, 24 hours) was less than 5 ng/mL, the “Average plasma concentrations” value ([1]; 50 mg/kg/day oral, Day 28, 0 hours) was less than 5 ng/mL and the “Average plasma concentrations” value ([1]; 50 mg/kg/day oral, Day 28, 1 hour) was 28.3 ng/mL. For the same compound, the “Average plasma concentrations” value ([1]; 50 mg/kg/day oral, Day 28, 2 hours) was 17.5 ng/mL, the “Average plasma concentrations” value ([1]; 50 mg/kg/day oral, Day 28, 4 hours) was 14.3 ng/mL and the “Average plasma concentrations” value ([1]; 50 mg/kg/day oral, Day 28, 8 hours) was roughly 5 ng/mL. For the same compound, the “Average plasma concentrations” value ([1]; 50 mg/kg/day oral, Day 28, 24 hours) was less than 5 ng/mL, the “Average plasma concentrations” value ([1]; 200 mg/kg/day oral, Day 14, 2 hours) was 70.2 ng/mL and the “Average plasma concentrations” value ([1]; 200 mg/kg/day oral, Day 14, 4 hours) was 27.6 ng/mL. For the same compound, the “Average plasma concentrations” value ([1]; 200 mg/kg/day oral, Day 14, 8 hours) was 13.5 ng/mL, the “Average plasma concentrations” value ([1]; 200 mg/kg/day oral, Day 14, 24 hours) was 10.2 ng/mL and the “Average plasma concentrations” value ([1]; 200 mg/kg/day oral, Day 28, 0 hours) was less than 5 ng/mL. For the same compound, the “Average plasma concentrations” value ([1]; 200 mg/kg/day oral, Day 28, 1 hour) was 65.4 ng/mL, the “Average plasma concentrations” value ([1]; 200 mg/kg/day oral, Day 28, 2 hours) was 44.6 ng/mL and the “Average plasma concentrations” value ([1]; 200 mg/kg/day oral, Day 28, 4 hours) was 23.5 ng/mL. For the same compound, the “Average plasma concentrations” value ([1]; 200 mg/kg/day oral, Day 28, 8 hours) was 12.4 ng/mL, the “Average plasma concentrations” value ([1]; 200 mg/kg/day oral, Day 28, 24 hours) was 12.4 ng/mL and the concentration at 0 h ([1]; 50 mg/kg/day, 50 mg/kg/day oral, Day 1, 0 hours) was less than 5 ng/mL. For the same compound, the concentration at 0.5 h ([1]; 50 mg/kg/day, 50 mg/kg/day oral, Day 1, 0.5 hours) was 34.5 ng/mL, the concentration at 1 h ([1]; 50 mg/kg/day, 50 mg/kg/day oral, Day 1, 1 hour) was 30.3 ng/mL and the concentration at 2 h [1, 3] was 23.8 ng/mL. The concentration at 4 h [1, 3] was 12.6 ng/mL, the concentration at 8 h [1, 3] was less than 5 ng/mL and the concentration at 24 h [1, 3] was less than 5 ng/mL. It also gave a concentration at 0 h ([1]; 50 mg/kg/day, 50 mg/kg/day oral, Day 14, 0 hours) of less than 5 ng/mL, a concentration at 0.5 h ([1]; 50 mg/kg/day, 50 mg/kg/day oral, Day 14, 0.5 hours) of 28.8 ng/mL and a concentration at 1 h ([1]; 50 mg/kg/day, 50 mg/kg/day oral, Day 14, 1 hour) of 29.5 ng/mL. It also gave a concentration at 0 h ([1]; 200 mg/kg/day, 200 mg/kg/day oral, Day 1, 0 hours) of less than 5 ng/mL, a concentration at 0.5 h ([1]; 200 mg/kg/day, 200 mg/kg/day oral, Day 1, 0.5 hours) of 52.1 ng/mL and a concentration at 1 h ([1]; 200 mg/kg/day, 200 mg/kg/day oral, Day 1, 1 hour) of 61.3 ng/mL. For the same compound, the concentration at 2 h [1, 4] was 45.9 ng/mL, the concentration at 4 h [1, 4] was 22.6 ng/mL and the concentration at 8 h [1, 4] was 9.9 ng/mL. For the same compound, the concentration at 24 h [1, 4] was 13 ng/mL, the concentration at 0 h ([1]; 200 mg/kg/day, 200 mg/kg/day oral, Day 14, 0 hours) was 16.6 ng/mL and the concentration at 0.5 h ([1]; 200 mg/kg/day, 200 mg/kg/day oral, Day 14, 0.5 hours) was 53.4 ng/mL. For the same compound, the concentration at 1 h ([1]; 200 mg/kg/day, 200 mg/kg/day oral, Day 14, 1 hour) was 63.2 ng/mL, the Metabolism ([1]; dogs, after single and repeated administration) was “extensively metabolized to the sulfone and sulfoxide derivatives” and the Cmax [1, 5] was 42.4 ± 10.6 ng/mL. For the same compound, the Tmax [1, 5] was 1 ± 0.87 h, the AUC(0-t) [1, 5] was 237 ± 105 ng·h/mL and the Cmax [1, 6] was 41.9 ± 2.2 ng/mL. The Tmax [1, 6] was 1.67 ± 0.58 h, the AUC(0-t) [1, 6] was 246 ± 117 ng·h/mL and the Cmax [1, 7] was 36.3 ± 15.1 ng/mL. It also gave a Tmax [1, 7] of 1 h, an AUC(0-t) [1, 7] of 87.1 ± 38.1 ng·h/mL and a Cmax [1, 8] of 84.1 ± 36.7 ng/mL. It also gave a Tmax [1, 8] of 1 h, an AUC(0-t) [1, 8] of 454 ± 119 ng·h/mL and a Cmax [1, 9] of 77.7 ± 50.8 ng/mL. It also gave a Tmax [1, 9] of 2 h, an AUC(0-t) [1, 9] of 443 ± 217 ng·h/mL and a Cmax [1, 10] of 73 ± 12 ng/mL. The Tmax [1, 10] was 1 h, the AUC(0-t) [1, 10] was 377 ± 83.5 ng·h/mL and the Cmax [1, 11] was 184 ± 75.6 ng/mL. It also gave a Tmax [1, 11] of 1.2 ± 0.45 h, an AUC(0-t) [1, 11] of 895 ± 437 ng·h/mL and a Cmax [1, 12] of 152 ± 44 ng/mL. The Tmax [1, 12] was 1.4 ± 0.55 h, the AUC(0-t) [1, 12] was 1170 ± 309 ng·h/mL and the Cmax [1, 13] was 101 ± 47.1 ng/mL. The Tmax [1, 13] was 1 h, the AUC(0-t) [1, 13] was 956 ± 378 ng·h/mL and the Cmax [1, 14] was 31.2 ± 12.4 ng/mL. For the same compound, the Tmax [1, 14] was 0.5 h, the AUC(0-t) [1, 14] was 140 ± 147 ng·h/mL and the Cmax [1, 15] was 26.5 ± 13 ng/mL. The Tmax [1, 15] was 0.5 h, the AUC(0-t) [1, 15] was 52.1 ± 29.4 ng·h/mL and the Cmax [1, 16] was 20.3 ± 7.89 ng/mL. For the same compound, the Tmax [1, 16] was 1 h, the AUC(0-t) [1, 16] was 124 ± 67 ng·h/mL and the Cmax [1, 17] was 54.9 ± 10.8 ng/mL. The Tmax [1, 17] was 1 ± 0.87 h, the AUC(0-t) [1, 17] was 419 ± 61.4 ng·h/mL and the Cmax [1, 18] was 78.1 ± 23.5 ng/mL. For the same compound, the Tmax [1, 18] was 1 ± 0.87 h, the AUC(0-t) [1, 18] was 452 ± 41.1 ng·h/mL and the Cmax [1, 19] was 57.9 ± 12.5 ng/mL. It also gave a Tmax [1, 19] of 1 h, an AUC(0-t) [1, 19] of 395 ± 15.8 ng·h/mL and a Cmax [1, 20] of 100 ± 21.2 ng/mL. It also gave a Tmax [1, 20] of 1.1 ± 0.55 h, an AUC(0-t) [1, 20] of 776 ± 182 ng·h/mL and a Cmax [1, 21] of 128 ± 56.9 ng/mL. For the same compound, the Tmax [1, 21] was 1 h, the AUC(0-t) [1, 21] was 929 ± 268 ng·h/mL and the Cmax [1, 22] was 86.2 ± 38.5 ng/mL. For the same compound, the Tmax [1, 22] was 1.2 ± 0.4 h, the AUC(0-t) [1, 22] was 736 ± 141 ng·h/mL and the embryotoxic effects [2] was “no embryotoxic effects”.
